Assay [1] has as its system Staphylococcus aureus (ATCC25923). Description: Microdilution MIC assay (CLSI-based), S. aureus. To be noted: 20 hours incubation at 35-37° C., MHB; for MIC: read-out: Minimum inhibitory concentration S. aureus ATCC25923. The assay is classed as cell-based. The procedure: (§1) The antibacterial activity of compounds was measured using a standard microdilution assay based on the Clinical and Laboratory Standards Institute (CLSI) guidelines. This method was slightly modified. Indeed, assay volumes were increased to 200 μL to improve reproducibility. The chemical compounds to be tested were in the form of salts for biological testing.
(§2) Bacteria tested: Antibacterial activities of the compounds were tested on Staphylococcus aureus (ATCC25923), Enterococcus faecalis (ATCC29212), Escherichia coli ([…]) and Pseudomonas aeruginosa (ATCC27853).
(§3) Preparation of the Preculture: Mueller Hinton Agar plates were inoculated with frozen biological strain in order to obtain separate colonies and the plates were incubated during 24 h at 35-37° C. 3 colonies of similar aspect were picked out, resuspended in 5 mL of fresh Mueller Hinton broth 1× (MHB) and incubated with shaking (160 rpm) at 35-37° C. overnight.
(§4) 0.1 mL of bacteria in exponential phase were suspended in 9.9 mL of MHB (1:100 dilution). 0.1 mL of the 1:100 dilution were dispensed into the wells of microplates containing 0.1 ml of serial compounds dilutions to yield ca. 5×10^5 CFU/mL. In parallel, the stocks solutions of chemical compounds were first diluted in appropriate solvent to a final concentration of 5 mg/mL. 8 μL were dispended into the first wells of the microplates containing 0.1 ml of sterile broth and a 0.5 cascade dilution was performed in MHB from 0.2 mg/mL. One control was made for each strain tested. […] Tests were performed in triplicate.
(§5) Reading of the Results: After incubation, the filter was replaced with a transparent film, and an optical density reading was then taken in an iEMS plate spectrophotometer at 620 nm. Calculation of the minimum inhibitory concentration (MIC) was performed.
A general note: Dilution methods test growth across graded concentrations, often in twofold steps.

For assay [2], the system named is Enterococcus faecalis (ATCC29212). Description: Microdilution MIC assay (CLSI-based), E. faecalis. To be noted: 20 hours incubation at 35-37° C., MHB; for MIC: read-out: Minimum inhibitory concentration E. faecalis ATCC29212. The assay is classed as cell-based. The procedure:
as §1, §2, §3, §4, §5

The subject of assay [3] is Escherichia coli (ATCC28922). Description: Microdilution MIC assay (CLSI-based), E. coli. In kind it is cell-based. To be noted: 20 hours incubation at 35-37° C., MHB; for MIC: read-out: Minimum inhibitory concentration E. coli ATCC28922. Here is the method:
as §1, §2, §3, §4, §5

The subject of assay [4] is Pseudomonas aeruginosa (ATCC27853). Kind of assay: Microdilution MIC assay (CLSI-based), P. aeruginosa. In kind it is cell-based. The conditions noted are these: 20 hours incubation at 35-37° C., MHB; for MIC: read-out: Minimum inhibitory concentration P. aeruginosa ATCC27853. The procedure: as §1, §2, §3, §4, §5
Another assay relates to CHO-K1 cells. Kind of assay: WST1 cytotoxicity test. The assay is classed as cell-based, Chinese hamster. To be noted: WST1, 24 hours at 37° C.; for IC50: read-out: IC50 CHO. The source says: Cytotoxicity: The test WST1 was used to measure the cytotoxic activity of the compounds of the invention. The test WST1 is a colorimetric test allowing to measure the viability and the degree of cell proliferation. It is based on cleavage of the colorless tetrazolium salts WST-1 (4—[3-(4-iodophenyl)-2-(4-nitrophenyl)-2H-5-tetrazolio]-1,3-benzene disulfonate) with mitochondrial dehydrogenases to the yellow-colored formazan derivative, which may be quantified by spectrophotometry at 420-480 nm. The WST1 test was performed on Chinese hamster ovary (CHO) cells. The CHO-K1 cells (ATCC, USA) were kept in culture in McCoy's 5A medium supplemented with 10% fetal calf serum, 2 mM of L-glutamine and a mixture of penicillin-streptomycin (100 U/ml: 10 μg/mL). The culture was incubated at 37° C. under an atmosphere enriched in CO2 (5%), and subcultured every two days. The cells were transferred into 96-well plates (25,000 cells/mL) in whole McCoy's 5A medium, and maintained for 24 hours at 37° C. under a humid atmosphere enriched in CO2 (5%). Increasing concentrations of tested compounds were added to the wells, each compound was tested in replicates and 8 growth controls containing the cells in the medium alone were included in each series of tests. After 24 hours at 37° C. (5% CO2), the culture medium was removed, the cells were rinsed in phosphate buffer (PBS) and 50 μL of PBS containing 10% of reagent WST1 were added to each well. After 20 minutes of incubation at 37° C., the results were read by spectrophotometry at 450 nm. The results are expressed in dose-response relationships, modeled by nonlinear regression analysis using the TableCurve software.
Cytotoxicity: The same WST1 test as described in Example 2 above was used.
For orientation: Tetrazolium dyes change colour on reduction, which living cells bring about.

Where [5] appears, read: Staphylococcus aureus, ATCC25923, 20 h.
Setting [6] is: Enterococcus faecalis, ATCC29212, 20 h.
Where [7] appears, read: Cricetulus griseus, CHO-K1, 24 h.
Where [8] appears, read: Escherichia coli, ATCC28922, 20 h.
The mark [9] stands for this setting: Pseudomonas aeruginosa, ATCC27853, 20 h.

≈ marks a conversion by molar mass, not a printed value. Where “and” joins values, the source holds several entries; their conditions need not be identical. Equal values may be shown once. Read-outs that look alike come from different tables or passages of the source. Marks after values point to notes of the source that are not given here. Bounds are passed on as bounds.

`COC(=O)CNC(=O)CC[C@@H](C)[C@H]1CCC2C3C(CC[C@@]21C)[C@@]1(C)CC[C@H](NCCCNCCCCNCCCN)C[C@H]1C[C@H]3O` (stereo partly drawn) [Compound S004, methyl ((4R)-4-((3S,5S,7R,10S,13R,17R)-3-((3-((4-((3-aminopropyl)amino)butyl)amino)propyl)amino)-7-hydroxy-10,13-dimethylhexadecahydro-1H-cyclopenta[a]phenanthren-17-yl)pentanoyl)glycinate]: the MIC in assay [1] (setting [5]) was 6.25 µM and 4 µg/mL; in assay [2] (setting [6]) it was 50 µM and 32 µg/mL; in assay [3], 100 µM (≈ 64.8 µg/mL). Moreover, in assay [3], the “Minimum inhibitory concentration E. coli ATCC28922” value is 64 µg/mL (≈ 98.8 µM). Also, the “Minimum inhibitory concentration P. aeruginosa ATCC27853” value in assay [4] was >200* μM and >128* μg/mL. Further, the IC50 with CHO-K1 cells (setting [7]) is 51.7 µM and 33.5 µg/mL.

In the case of `COC(=O)CNC(=O)CC[C@@H](C)[C@H]1CCC2C3C(CC[C@@]21C)[C@@]1(C)CC[C@H](NCCCN(CCCN)CCCN)C[C@H]1C[C@H]3O` (stereo partly drawn) [Compound S005, methyl ((4R)-4-((3S,5S,7R,10S,13R,17R)-3-((3-(bis(3-aminopropyl)amino)propyl)amino)-7-hydroxy-10,13-dimethylhexadecahydro-1H-cyclopenta[a]phenanthren-17-yl)pentanoyl)glycinate], the MIC was 12.5 µM and 8 µg/mL in assay [1] (setting [5]); 200 µM and 128 µg/mL in assay [2] (setting [6]); > 200 µM and > 126 µg/mL in assay [3] (setting [8]); > 200 µM and > 126 µg/mL in assay [4] (setting [9]). Also, in the assay with CHO-K1 cells (setting [7]), the IC50 was > 100 µM and > 64 µg/mL.

For the compound `COC(=O)CNC(=O)CC[C@@H](C)[C@H]1CCC2C3C(CC[C@@]21C)[C@@]1(C)CC[C@H](NCCCN2CCN(CCCN)CC2)C[C@H]1C[C@H]3O` (stereo partly drawn) [Compound S006, methyl ((4R)-4-((3S,5S,7R,10S,13R,17R)-3-((3-(4-(3-aminopropyl)piperazin-1-yl)propyl)amino)-7-hydroxy-10,13-dimethylhexadecahydro-1H-cyclopenta[a]phenanthren-17-yl)pentanoyl)glycinate], the MIC in assay [1] (setting [5]) is 25 µM and 16 µg/mL; in assay [2] (setting [6]), > 200 µM and > 128 µg/mL; in assay [3] (setting [8]), > 200 µM and > 128 µg/mL; in assay [4] (setting [9]), > 200 µM and > 128 µg/mL. Moreover, in the assay on CHO-K1 cells (setting [7]), the IC50 is 73.6 µM and 47.7 µg/mL.

On to `COC(=O)[C@H](NC(=O)CC[C@@H](C)[C@H]1CCC2C3C(CC[C@@]21C)[C@@]1(C)CC[C@H](NCCCNCCCN)C[C@H]1C[C@H]3O)C(C)C` (stereo partly drawn) [Compound S007, methyl ((4R)-4-((3S,5S,7R,10S,13R,17R)-3-((3-((3-aminopropyl)amino)propyl)amino)-7-hydroxy-10,13-dimethylhexadecahydro-1H-cyclopenta[a]phenanthren-17-yl)pentanoyl)-D-valinate], for which, in assay [1], the “Minimum inhibitory concentration S. aureus ATCC25923” value came out at 8 µg/mL (≈ 12.9 µM) and the MIC is 12.5 µM (≈ 7.74 µg/mL). In assay [2], the “Minimum inhibitory concentration E. faecalis ATCC29212” value is 8 µg/mL (≈ 12.9 µM) and the MIC is 12.5 µM (≈ 7.74 µg/mL). In assay [3], the “Minimum inhibitory concentration E. coli ATCC28922” value was 4 µg/mL (≈ 6.46 µM) and the MIC came out at 6.25 µM (≈ 3.87 µg/mL). In assay [4], the “Minimum inhibitory concentration P. aeruginosa ATCC27853” value was 16 µg/mL (≈ 25.9 µM) and the MIC turned out to be 25 µM (≈ 15.5 µg/mL). In the assay on CHO-K1 cells, the “IC50 CHO” value is 70.20 µg/mL (≈ 113 µM) and the IC50 worked out at 113 µM.

As to `COC(=O)[C@H](NC(=O)CC[C@@H](C)[C@H]1CCC2C3C(CC[C@@]21C)[C@@]1(C)CC[C@H](NCCN)C[C@H]1C[C@H]3O)C(C)C` (stereo partly drawn) [Compound S008, methyl ((4R)-4-((3S,5S,7R,10S,13R,17R)-3-((2-aminoethyl)amino)-7-hydroxy-10,13-dimethylhexadecahydro-1H-cyclopenta[a]phenanthren-17-yl)pentanoyl)-D-valinate], the MIC is 25 µM and 16 µg/mL in assay [1] (setting [5]); 25 µM and 16 µg/mL in assay [2] (setting [6]); 25 µM and 16 µg/mL in assay [3] (setting [8]); 200 µM and 128 µg/mL in assay [4] (setting [9]). Also, the IC50 in the assay with CHO-K1 cells (setting [7]) was 86 µM and 47.1 µg/mL.

For the compound `COC(=O)[C@H](NC(=O)CC[C@@H](C)[C@H]1CCC2C3C(CC[C@@]21C)[C@@]1(C)CC[C@H](NCCCCCCCCCCN)C[C@H]1C[C@H]3O)C(C)C` (stereo partly drawn) [Compound S009, methyl ((4R)-4-((3S,5S,7R,10S,13R,17R)-3-((10-aminodecyl)amino)-7-hydroxy-10,13-dimethylhexadecahydro-1H-cyclopenta[a]phenanthren-17-yl)pentanoyl)-D-valinate], the MIC in assay [1] (setting [5]) was 25 µM and 16 µg/mL; in assay [2] (setting [6]) it was 25 µM and 16 µg/mL; in assay [3] (setting [8]) it was 200 µM and 128 µg/mL; in assay [4] (setting [9]) it was > 200 µM and > 128 µg/mL. Also, the IC50 with CHO-K1 cells (setting [7]) is 20 µM and 13.2 µg/mL.

On to `COC(=O)[C@H](NC(=O)CC[C@@H](C)[C@H]1CCC2C3C(CC[C@@]21C)[C@@]1(C)CC[C@H](NCCCNCCCNCCCN)C[C@H]1C[C@H]3O)C(C)C` (stereo partly drawn) [Compound S011, methyl ((4R)-4-((3S,5S,7R,10S,13R,17R)-3-((3-((3-((3-aminopropyl)amino)propyl)amino)propyl)amino)-7-hydroxy-10,13-dimethylhexadecahydro-1H-cyclopenta[a]phenanthren-17-yl)pentanoyl)-D-valinate], for which the MIC in assay [1] (setting [5]) was 12.5 µM and 8 µg/mL; in assay [2] (setting [6]), 25 µM and 16 µg/mL; in assay [3] (setting [8]), 12.5 µM and 8 µg/mL; in assay [4] (setting [9]), 25 µM and 16 µg/mL. The IC50 in the assay on CHO-K1 cells (setting [7]) was 1.17 µM and 0.79 µg/mL.

As for `COC(=O)[C@H](NC(=O)CC[C@@H](C)[C@H]1CCC2C3C(CC[C@@]21C)[C@@]1(C)CC[C@H](NCCNCCNCCN)C[C@H]1C[C@H]3O)C(C)C` (stereo partly drawn) [Compound S012, methyl ((4R)-4-((3S,5S,7R,10S,13R,17R)-3-((2-((2-((2-aminoethyl)amino)ethyl)amino)ethyl)amino)-7-hydroxy-10,13-dimethylhexadecahydro-1H-cyclopenta[a]phenanthren-17-yl)pentanoyl)-D-valinate], the MIC was 50 µM and 32 µg/mL in assay [1] (setting [5]); 25 µM and 16 µg/mL in assay [2] (setting [6]); 100 µM and 64 µg/mL in assay [3] (setting [8]); 100 µM and 64 µg/mL in assay [4] (setting [9]). In addition, in the assay with CHO-K1 cells (setting [7]), the IC50 is 101 µM and 64.2 µg/mL.

The IC50 is the midpoint of a concentration-inhibition curve.
